Test results reported in BindingDB's records for patent US10626103 (Celgene Quanticel Research, 2020).

Target: Lysine-specific histone demethylase 1A (Homo sapiens, UniProt O60341)
Assay: In Vitro Enzyme Inhibition Assay - LSD-1
Description: The enzymatic assay of LSD1 activity is based on Time Resolved-Fluorescence Resonance Energy Transfer (TR-FRET) detection. […] Plates were read by EnVision Multilabel Reader in TR-FRET mode (excitation at 320 nm, emission at 615 nm and 665 nm) after 1 hour incubation at room temperature.

**Q.** `COc1ccc(-c2c(-c3ccc(C#N)c(F)c3)cc(C(=O)N3CCC[C@@H](N)C3)n2CCCC(=O)O)cc1` [US10626103, Example 41] was tested. Which IC50 did it give?
**A.** < 100 nM
